Experimental data from PubChem BioAssay AID588327 (The Scripps Research Institute Molecular Screening Center, 2011).
Calls of active or inactive are those of the source. The rule behind the calls is not given here.

Biological target: Sphingosine 1-phosphate receptor 3 (Homo sapiens) (UniProt Q99500)
Assay: S1P3 radioligand displacement, late-stage follow-up, mechanism study for S1P3 agonist project, cell-based, [33P]S1P, radiometric, dose response (AID 588327)
Details: S1P3 membranes, [33P]S1P competition binding, CPM

Sequence of Sphingosine 1-phosphate receptor 3 (Homo sapiens) (Q99500 whole entry, looked up): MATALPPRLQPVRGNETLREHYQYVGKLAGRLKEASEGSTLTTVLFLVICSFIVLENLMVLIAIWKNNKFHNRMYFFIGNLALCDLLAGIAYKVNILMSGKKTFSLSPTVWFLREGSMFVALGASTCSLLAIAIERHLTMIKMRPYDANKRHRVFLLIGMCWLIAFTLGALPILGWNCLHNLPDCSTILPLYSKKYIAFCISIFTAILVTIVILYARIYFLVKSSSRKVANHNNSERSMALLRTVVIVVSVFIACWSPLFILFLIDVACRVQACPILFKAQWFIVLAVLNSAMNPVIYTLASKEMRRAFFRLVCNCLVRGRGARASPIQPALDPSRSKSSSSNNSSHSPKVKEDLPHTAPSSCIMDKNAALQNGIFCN

IC50: > 10 µM (inactive)
SMILES: O=C(c1cc(C2CC2)on1)N(C1CCCCC1)C1CCCCC1
